Like-named read-outs stand apart in the source and are kept apart here. Blank lines part the entries; values can stand above or below the compound they belong to.
Type: in vivo, human

- Association of season with N-desmethyltamoxifen concentration, β (secondary screen, fall compared to winter): −1.053
- Association of weight with N-desmethyltamoxifen concentration, β (secondary screen, greater weight): −0.025
SMILES: CC/C(=C(\c1ccccc1)c1ccc(OCCNC)cc1)c1ccccc1 [N-desmethyltamoxifen]

- Final multivariable model, steady-state endoxifen concentration, B Coefficient (95% Confidence Interval) (CYP2C9 Activity Phenotype): .20 (0.03, 0.37)
- Final multivariable model, steady-state endoxifen concentration, B Coefficient (95% Confidence Interval) (CYP2D6 Diplotype IM/IM (vs. NM/NM)): −.87 (−1.4, −.34)
- Final multivariable model, steady-state endoxifen concentration, B Coefficient (95% Confidence Interval) (CYP2D6 Diplotype IM/PM (vs. NM/NM)): −.96 (−1.3, −.61)
- Final multivariable model, steady-state endoxifen concentration, B Coefficient (95% Confidence Interval) (CYP2D6 Diplotype NM/IM (vs. NM/NM)): −.35 (−.61, −.08)
- Final multivariable model, steady-state endoxifen concentration, B Coefficient (95% Confidence Interval) (CYP2D6 Diplotype NM/PM (vs. NM/NM)): −.49 (−.73, −.26)
- Final multivariable model, steady-state endoxifen concentration, B Coefficient (95% Confidence Interval) (CYP2D6 Diplotype PM/PM (vs. NM/NM)): −1.32 (−1.79, −.85)
- Final multivariable model, steady-state endoxifen concentration, B Coefficient (95% Confidence Interval) (Season of Sample Collection Fall (vs. winter)): −.48 (−.74, −.22)
- Final multivariable model, steady-state endoxifen concentration, B Coefficient (95% Confidence Interval) (Season of Sample Collection Summer (vs. winter)): −.49 (−.79, −.19)
- Final multivariable model, steady-state endoxifen concentration, B Coefficient (95% Confidence Interval) (Weight (kg)): −.013 (−.02, −.01)
- Association of SULT1A1 activity with endoxifen/4-OH-tamoxifen ratio, β (secondary screen, higher SULT1A1 predicted activity phenotype): 0.54
- Association of CYP2C8 activity with ratio of endoxifen to N-desmethyltamoxifen, β (secondary screen, increased CYP2C8 predicted activity phenotype): 0.01
- Mean Endoxifen (Std. Dev.) (steady state, tamoxifen 20 mg daily, ABCB1 predicted activity phenotype Normal): 7.01 (4.41) n=60 ng/mL
- Mean Endoxifen (Std. Dev.) (steady state, tamoxifen 20 mg daily, ABCB1 predicted activity phenotype Poor): 8.93 (7.53) n=37 ng/mL
- Mean Endoxifen (Std. Dev.) (steady state, tamoxifen 20 mg daily, ABCC2 predicted activity phenotype Normal): 8.29 (4.99) n=89 ng/mL
- Mean Endoxifen (Std. Dev.) (steady state, tamoxifen 20 mg daily, ABCC2 predicted activity phenotype Poor): 9.30 (5.34) n=10 ng/mL
- Mean Endoxifen (Std. Dev.) (steady state, tamoxifen 20 mg daily, ABCG2 predicted activity phenotype Normal): 7.90 (5.48) n=249 ng/mL
- Mean Endoxifen (Std. Dev.) (steady state, tamoxifen 20 mg daily, ABCG2 predicted activity phenotype Poor): 12.82 (10.85) n=3 ng/mL
- Mean Endoxifen (Std. Dev.) (steady state, tamoxifen 20 mg daily, CYP1A1 predicted activity phenotype Normal): 8.05 (5.51) n=248 ng/mL
- Mean Endoxifen (Std. Dev.) (steady state, tamoxifen 20 mg daily, CYP1A1 predicted activity phenotype Poor): 3.19 (1.53) n=2 ng/mL
- Mean Endoxifen (Std. Dev.) (steady state, tamoxifen 20 mg daily, CYP1A2 predicted activity phenotype Normal): 8.13 (4.48) n=22 ng/mL
- Mean Endoxifen (Std. Dev.) (steady state, tamoxifen 20 mg daily, CYP1A2 predicted activity phenotype Poor): 9.57 (6.18) n=6 ng/mL
- Mean Endoxifen (Std. Dev.) (steady state, tamoxifen 20 mg daily, CYP2A6 predicted activity phenotype Normal): 7.95 (5.57) n=220 ng/mL
- Mean Endoxifen (Std. Dev.) (steady state, tamoxifen 20 mg daily, CYP2A6 predicted activity phenotype Poor): 7.46 (9.71) n=5 ng/mL
- Mean Endoxifen (Std. Dev.) (steady state, tamoxifen 20 mg daily, CYP2B6 predicted activity phenotype Normal): 8.11 (5.33) n=151 ng/mL
- Mean Endoxifen (Std. Dev.) (steady state, tamoxifen 20 mg daily, CYP2B6 predicted activity phenotype Poor): 8.20 (4.81) n=24 ng/mL
- Mean Endoxifen (Std. Dev.) (steady state, tamoxifen 20 mg daily, CYP2C8 predicted activity phenotype Normal): 8.38 (5.72) n=205 ng/mL
- Mean Endoxifen (Std. Dev.) (steady state, tamoxifen 20 mg daily, CYP2C8 predicted activity phenotype Poor): 6.71 (5.04) n=13 ng/mL
- Mean Endoxifen (Std. Dev.) (steady state, tamoxifen 20 mg daily, CYP2C9 predicted activity phenotype Normal): 8.29 (5.61) n=189 ng/mL
- Mean Endoxifen (Std. Dev.) (steady state, tamoxifen 20 mg daily, CYP2C9 predicted activity phenotype Poor): 6.26 (4.82) n=9 ng/mL
- Mean Endoxifen (Std. Dev.) (steady state, tamoxifen 20 mg daily, CYP2C19 predicted activity phenotype Normal): 7.64 (5.97) n=109 ng/mL
- Mean Endoxifen (Std. Dev.) (steady state, tamoxifen 20 mg daily, CYP2C19 predicted activity phenotype Poor): 7.95 (5.66) n=13 ng/mL
- Mean Endoxifen (Std. Dev.) (steady state, tamoxifen 20 mg daily, CYP2E1 predicted activity phenotype Normal): 8.03 (5.40) n=84 ng/mL
- Mean Endoxifen (Std. Dev.) (steady state, tamoxifen 20 mg daily, CYP3A4 predicted activity phenotype Normal): 7.78 (5.39) n=288 ng/mL
- Mean Endoxifen (Std. Dev.) (steady state, tamoxifen 20 mg daily, CYP3A5 predicted activity phenotype Normal): 8.51 (7.70) n=8 ng/mL
- Mean Endoxifen (Std. Dev.) (steady state, tamoxifen 20 mg daily, CYP3A5 predicted activity phenotype Poor): 7.71 (5.29) n=240 ng/mL
- Mean Endoxifen (Std. Dev.) (steady state, tamoxifen 20 mg daily, SLCO1B1 predicted activity phenotype Normal): 8.63 (5.57) n=87 ng/mL
- Mean Endoxifen (Std. Dev.) (steady state, tamoxifen 20 mg daily, SLCO1B1 predicted activity phenotype Poor): 6.97 (4.21) n=62 ng/mL
- Mean Endoxifen (Std. Dev.) (steady state, tamoxifen 20 mg daily, SULT1A1 predicted activity phenotype Normal): 7.56 (4.51) n=111 ng/mL
- Mean Endoxifen (Std. Dev.) (steady state, tamoxifen 20 mg daily, SULT1A1 predicted activity phenotype Poor): 7.81 (6.59) n=45 ng/mL
- Mean Endoxifen (Std. Dev.) (steady state, tamoxifen 20 mg daily, SULT1A2 predicted activity phenotype Normal): 7.94 (5.23) n=84 ng/mL
- Mean Endoxifen (Std. Dev.) (steady state, tamoxifen 20 mg daily, SULT1A2 predicted activity phenotype Poor): 7.72 (5.70) n=74 ng/mL
- Mean Endoxifen (Std. Dev.) (steady state, tamoxifen 20 mg daily, UGT2B7 predicted activity phenotype Normal): 7.11 (5.09) n=73 ng/mL
- Mean Endoxifen (Std. Dev.) (steady state, tamoxifen 20 mg daily, UGT2B7 predicted activity phenotype Poor): 8.38 (5.36) n=63 ng/mL
- Mean Endoxifen (Std. Dev.) (steady state, tamoxifen 20 mg daily, UGT2B15 predicted activity phenotype Normal): 8.07 (5.82) n=71 ng/mL
- Mean Endoxifen (Std. Dev.) (steady state, tamoxifen 20 mg daily, UGT2B15 predicted activity phenotype Poor): 7.75 (4.48) n=75 ng/mL
- Mean Endoxifen (Std. Dev.) (steady state, tamoxifen 20 mg daily, UGT2B17 predicted activity phenotype Normal): 7.83 (5.25) n=122 ng/mL
- Mean Endoxifen (Std. Dev.) (steady state, tamoxifen 20 mg daily, UGT2B17 predicted activity phenotype Poor): 6.60 (5.48) n=35 ng/mL
SMILES: CC/C(=C(\c1ccc(O)cc1)c1ccc(OCCNC)cc1)c1ccccc1 [endoxifen]

- tamoxifen concentrations by season of sample collection (steady state, tamoxifen 20 mg daily): not different between the seasons
SMILES: CC/C(=C(\c1ccccc1)c1ccc(OCCN(C)C)cc1)c1ccccc1 [tamoxifen, reference compound]
